Test results from PubChem BioAssay (NCI).
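Values below derive from 48-hour exposures of cells grown in 96-well plates, with endpoints linearly interpolated between the two concentrations bracketing the appropriate inhibition level. The concentration for 50% growth inhibition is given as GI50. TGI denotes the concentration required for complete inhibition of growth.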

How the values were obtained:
Assay in all cases: inhibition of tumour cell growth, NCI panel, 48 h
UACC-257 melanoma = tested on: UACC-257 melanoma
HCC-2998 colon = tested on: HCC-2998 colon
HOP-92 NSCLC = tested on: HOP-92 NSCLC
SK-MEL-5 melanoma = tested on: SK-MEL-5 melanoma
UACC-62 melanoma = tested on: UACC-62 melanoma
MDA-MB-435 = tested on: MDA-MB-435
M14 melanoma = tested on: M14 melanoma
A498 renal = tested on: A498 renal
CCRF-CEM leukemia = tested on: CCRF-CEM leukemia
EKVX NSCLC = tested on: EKVX NSCLC

| Compound | TGI (UACC-257 melanoma) [µM] | TGI (HCC-2998 colon) [µM] | TGI (HOP-92 NSCLC) [µM] | TGI (SK-MEL-5 melanoma) [µM] | TGI (UACC-62 melanoma) [µM] | TGI (MDA-MB-435) [µM] | TGI (M14 melanoma) [µM] | TGI (A498 renal) [µM] | TGI (CCRF-CEM leukemia) [µM] | TGI (EKVX NSCLC) [µM] | GI50 (MDA-MB-435) [µM] |
| --- | --- | --- | --- | --- | --- | --- | --- | --- | --- | --- | --- |
| O=[N+]([O-])c1ccc(CSC2=C(c3ccc(Cl)cc3)S/C(=C3\SC(SCc4ccc([N+](=O)[O-])cc4)=C(c4ccc(Cl)cc4)S3)S2)cc1 | > 100 | > 100 | > 100 | > 100 | > 100 | > 100 | > 100 | > 100 | > 100 | > 100 | – |
| O=C1OCOC2(CCCC2)C1c1ccccc1 (stereo unspecified) | > 100 | > 100 | > 100 | > 100 | > 100 | > 100 | > 100 | > 100 | > 100 | > 100 | – |
| COC(=O)c1sc2c(c1C(=O)OC)C(=Nc1ccc(OC)cc1)SC2=Nc1ccc(OC)cc1 | 2.75 | 3.17 | 2.91 | 2.54 | 2.84 | 1.94 | 3 | 3.01 | 0.289 | 3.02 | – |
| Cc1ccc([N+](=O)[O-])cc1S(=O)(=O)Nc1ccc(C2=NN(S(=O)(=O)c3cc([N+](=O)[O-])ccc3C)C(c3ccccc3O)C2)cc1 (stereo unspecified) | > 100 | > 100 | > 100 | > 100 | > 100 | > 100 | > 100 | 83.9 | > 100 | > 100 | – |
| CC[C@@]1(O)C(=O)OCc2c1cc1n(c2=O)Cc2c-1nc1ccc(N)cc1c2CC[Si](C)(C)C | 0.155 | 0.103 | 1.07 | < 0.0222 | < 0.0104 | 4.54 | < 0.0499 | 0.0189 | < 0.01 | 3.23 | – |
| Cc1c(CCCl)c(Cl)n2c(nc3ccccc32)c1C#N | 3.07 | 2.94 | 2.99 | 2.35 | 2.51 | 2.22 | 3.06 | 2.83 | 3.36 | 25.3 | – |
| COc1cc2c(cc1C)NC(=O)/C2=C/c1c(Cl)[nH]c2ccccc12 | 22.8 | 15.4 | 25 | 11.4 | 14.4 | 4.13 | 13.3 | 16.6 | 17.2 | 20.9 | – |
| NS(=O)(=O)c1ccc(Nc2c3ccccc3nc3c(C(=O)NC(CO)(CO)CO)cccc23)cc1 | 0.346 | 0.39 | 0.389 | 0.229 | 0.318 | 0.558 | 0.39 | 0.466 | 0.891 | > 1 | – |
| CNC(=O)OC1/C(C)=C\C(C)C(O)C(OC)CC(C)CC2=C(OC)C(=O)C=C(C2=O)N(C)C(=O)/C(C)=C/C=C\C1OC (stereo unspecified) | 19 | 21.4 | 16 | 21.5 | 17.6 | > 100 | 18.4 | 42.8 | 4.08 | 24.7 | > 100 |
| C=CCN(C(C)=O)c1cc(OCc2ccccc2)c2c(c1)c(C)cn2S(=O)(=O)c1ccccc1 | > 100 | > 100 | > 100 | 21.5 | > 76.9 | > 46.3 | > 100 | 26.3 | > 27.1 | > 50.3 | – |
| CCOC(=O)c1c(N2CCN(C)CC2)[nH]c(=O)c(C(c2c(Cl)cccc2Cl)c2c(O)c(C(=O)OCC)c(N3CCN(C)CC3)[nH]c2=O)c1O | 38.9 | 78.1 | 37.6 | 40.1 | 39.5 | 57.9 | 68.9 | 39.8 | > 100 | 34.2 | – |
| O=C1N[C@@H]([C@H]2CC[C@H](Cl)CN2)C(=O)N[C@H]1[C@H]1CC[C@H](Cl)CN1 | 15.1 | 6.42 | 7.95 | 5.53 | 3.53 | 32 | 2.3 | 15.6 | 33.4 | 19.2 | – |
| CCOC(=O)c1cccc(N=NNc2cccc(C(=O)OCC)c2)c1 | > 100 | > 100 | 46.8 | > 100 | > 100 | > 100 | > 100 | 86.1 | > 100 | > 100 | – |
| O=[N+]([O-])C(/C=C(\Cl)[N+](=O)[O-])=C(N1CCOCC1)N1CCOCC1 | > 100 | 43 | 76.4 | > 100 | > 100 | > 100 | > 100 | 51.5 | > 100 | > 100 | – |
| NC1=Nc2ncccc2C(=O)NN1 | > 10 | > 10 | > 10 | > 10 | > 10 | > 10 | > 10 | > 10 | > 10 | > 10 | – |
